In US20030022821A1, “Bioactive peptides” (priority 1998, published 2003):
Converted amounts (≈) assume the structure as drawn. Where two headings read alike, the source gives them in different places. Ends that are not written are not given here. Peptide text beside a SMILES is read from it. * marks the point of attachment. Fmoc = O=C(OCC1c2ccccc2-c2ccccc21)*; Acm = CC(=O)NC*

How the values were obtained:
[1] = system: Meth A cells (murine sarcoma cell line); test: Cytotoxicity on Meth A cells, MTT method; conditions: for MethA IC50: 4 h
Procedure: Peptide solutions (0.1 ml) were added and the plates incubated at 37° C. for 30 minutes, 4 hours or 24 hours. The cytotoxicity was measured using the MTT method (Mosmann et al., J. Immunol. (1986) 136, 2348-2357).
Cells in the growth phase were harvested and washed in fresh medium and injected subcutaneously into the abdominal region of the mice.
The cytotoxic effect of the peptides on different murine and human tumor cells were measured using the MTT method (Mosmann et al., J. Immunol. (1986) 136, 2348-2357). MTT is a soluble tetrazolium salt yielding a yellow solution when prepared in media or salt solutions lacking phenol red. Dissolved MTT is converted to an insoluble purple formazan by cleavage of the tetrazolium ring by dehydrogenase enzymes. This water insoluble formazan can be solubilized using isopropanol or other solvents and the dissolved material is measured spectrophotometrically. The absorbance was measured as a function of concentration of converted dye.
Cells were maintained in […] medium containing 10% FBS, 1% L-glutamine and 0.1% penicillin and streptomycin. Cells to be used in the assay were grown to confluency, trypsinated and split to single cell suspension, counted and centrifuged at 1500 rpm for 10 min. […][…] of cell suspension was transferred to each well on a 96-well microtiter plate. The cells were stimulated by adding […] of various concentrations of peptides diluted with assay medium to each well. The final concentrations of peptide were for example: 5, 10, 20, 40, 60, 80, 100, and 200 mg/ml. […] As a negative control only medium was added to the cells, and as a positive control (100% killing) 1% triton X-100 was added. Following an incubation period of 4 h., 20 ml MTT dissolved in PBS at a concentration of 5 mg/ml was added to each well, and the plate was incubated further for 2 h. 130 ml of the supernatant were then removed and […] acid alcohol (0.04-0.1 N HCl in isopropanol) added to each well to dissolve the dark blue crystals. The plate was placed on a shaker for 1 h and read spectrophotometrically at 590 nm in a microtiterplate reader using the Softmaxâ program.

[2] = system: Escherichia coli ATCC 25922; type: cell-based
Procedure, shortened: (§1)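 Peptides were assayed against mid-log cultures by microdilution (1% Bacto Peptone water, 2×10^6 CFU/ml). Their solution concentration was measured by HPLC before and after plating. Triplicate determinations.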

[3] = system: Staphylococcus aureus ATCC 25923; type: cell-based
Procedure, shortened: as §1

human red blood cells = test: Hemolytic assay; type: cell-based; conditions: for % Hemolysis 10 μg/ml / % Hemolysis 100 μg/ml: red cells of human
Procedure: The hemolytic activities of the peptides were determined using fresh human red blood cells. 8 ml blood was taken from a healthy person. 4 ml blood was transferred to a polycarbonate tube containing heparin to a final concentration of 10 U/ml, and the remaining 4 ml blood was transferred to a glass tube containing EDTA with final concentration of 15% EDTA. The erythrocytes were isolated from heparin-treated blood by centrifugation in 1500 rpm for 10 min and washed three times with phosphate-buffered saline (PBS) to remove plasma and buffy coat. The cell pellet was resuspended in PBS to make the final volume of 4 ml. The peptide was diluted to a concentration of 2 mg/ml and 0.1 mg/ml. The peptide was further diluted to the concentrations as stated in Table 15. For each tube PBS was added first, then RBCs and peptide solutions. The hematocrit in the blood treated with EDTA was determined after 30 min with Sysmex K-1000, and the resuspended RBCs were diluted into 10% hematocrit. RBCs in PBS (1%) with and without peptides (Table 15) were incubated in a shaker at […] for 1 hour and then centrifuged at 4000 rpm for 5 min. The supernatant were carefully transferred to new polycarbonate tubes and the absorbance of the supernatant was measured at 540 nm. Baseline hemolysis was hemoglobin released in the presence of PBS, and 100% hemolysis was hemoglobin released in the presence of 0.1% Triton X-100.

Molecule	MIC E. coli ([2]; ATCC 25922)	MIC S. aureus ([3]; ATCC 25923)	% Hemolysis 10 μg/ml (human red blood cells)	% Hemolysis 100 μg/ml (human red blood cells)	further results
CSCC[C@H](NC(=O)[C@H](CCCNC(=N)N)NC(=O)[C@H](Cc1c[nH]c2ccccc12)NC(=O)[C@H](C)NC(=O)[C@H](Cc1c[nH]c2ccccc12)NC(=O)[C@H](CCCNC(=N)N)NC(=O)[C@H](CCCNC(=N)N)NC(=O)OCC1c2ccccc2-c2ccccc21)C(=O)N[C@@H](CCCCN)C(=O)N[C@@H](CCCCN)C(=O)O [LFB 20-28 A4 FMOC] (Fmoc-RRWAWRMKK-OH)	–	–	–	–	MethA IC50 [1]: 120 µg/mL
CSCC[C@H](NC(=O)[C@H](CCCNC(=N)N)NC(=O)[C@H](Cc1c[nH]c2ccccc12)NC(=O)[C@H](C)NC(=O)[C@H](Cc1c[nH]c2ccccc12)NC(=O)[C@H](CCCNC(=N)N)NC(=O)[C@H](CCCNC(=N)N)NC(=O)[C@H](CSCNC(C)=O)NC(=O)[C@H](CCCCN)NC(=O)[C@@H](N)Cc1ccccc1)C(=O)N[C@@H](CCCCN)C(=O)N[C@@H](CCCCN)C(=O)N[C@@H](CC(C)C)C(=O)NCC(=O)N[C@@H](C)C(=O)O [LFB A7] (H-FKC(Acm)RRWAWRMKKLGA-OH)	30 µg/mL (≈ 14.9 µM)	150 µg/mL (≈ 74.7 µM)	–	–	MethA IC50 [1]: 500 µg/mL
CSCC[C@H](NC(=O)[C@H](CCCNC(=N)N)NC(=O)[C@H](Cc1c[nH]c2ccccc12)NC(=O)[C@H](CCC(N)=O)NC(=O)[C@H](Cc1c[nH]c2ccccc12)NC(=O)[C@H](CCCNC(=N)N)NC(=O)[C@H](CC(C)C)NC(=O)[C@H](CSCNC(C)=O)NC(=O)[C@H](CCCCN)NC(=O)[C@@H](N)CCCNC(=N)N)C(=O)N[C@@H](CCCNC(=N)N)C(=O)N[C@@H](CCCCN)C(=O)N[C@H](C(=O)NCC(=O)NCC(=O)O)C(C)C [LFM R1, 9 W8] (H-RKC(Acm)LRWQWRMRKVGG-OH; N-terminus assumed)	25 µg/mL (≈ 12.3 µM)	75 µg/mL (≈ 36.9 µM)	3.69%	–	–
CSCC[C@H](NC(=O)[C@H](CCC(=O)O)NC(=O)[C@H](Cc1c[nH]c2ccccc12)NC(=O)[C@H](CCC(N)=O)NC(=O)[C@H](Cc1c[nH]c2ccccc12)NC(=O)[C@H](CCCNC(=N)N)NC(=O)[C@H](CC(C)C)NC(=O)[C@H](CSCNC(C)=O)NC(=O)[C@H](CCCCN)NC(=O)[C@@H](N)CCCNC(=N)N)C(=O)N[C@@H](CCCNC(=N)N)C(=O)N[C@@H](CCCCN)C(=O)N[C@H](C(=O)NCC(=O)NCC(=O)O)C(C)C [LFM R1, W8] (H-RKC(Acm)LRWQWEMRKVGG-OH; N-terminus assumed)	75 µg/mL (≈ 37.4 µM)	500 µg/mL (≈ 249 µM)	2.8%	3.48%	–
CSCC[C@H](NC(=O)[C@H](CCCNC(=N)N)NC(=O)[C@H](Cc1c[nH]c2ccccc12)NC(=O)[C@H](CCC(N)=O)NC(=O)[C@H](Cc1c[nH]c2ccccc12)NC(=O)[C@H](CCCNC(=N)N)NC(=O)[C@H](CC(C)C)NC(=O)[C@H](CSCNC(C)=O)NC(=O)[C@H](CCCCN)NC(=O)[C@@H](N)CCC(=O)O)C(=O)N[C@@H](CCCNC(=N)N)C(=O)N[C@@H](CCCCN)C(=O)N[C@H](C(=O)NCC(=O)NCC(=O)O)C(C)C [LFM R9 W8] (H-EKC(Acm)LRWQWRMRKVGG-OH; N-terminus assumed)	500 µg/mL (≈ 249 µM)	>1000 µg/mL	3.1%	4.59%	–
CSCC[C@H](NC(=O)[C@H](CCC(=O)O)NC(=O)[C@H](Cc1c[nH]c2ccccc12)NC(=O)[C@H](CCC(N)=O)NC(=O)[C@H](Cc1c[nH]c2ccccc12)NC(=O)[C@H](CCCNC(=N)N)NC(=O)[C@H](CC(C)C)NC(=O)[C@H](CSCNC(C)=O)NC(=O)[C@H](CCCCN)NC(=O)[C@@H](N)CCC(=O)O)C(=O)N[C@@H](CCCNC(=N)N)C(=O)N[C@@H](CCCCN)C(=O)N[C@H](C(=O)NCC(=O)NCC(=O)O)C(C)C [LFM W8, H2N-Glu-Lys-Cys-Leu-Arg-Trp-Gln-Trp-Glu-Met-Arg-Lys-Val-Gly-Gly-COOH] (H-EKC(Acm)LRWQWEMRKVGG-OH)	>1000 µg/mL	1000 µg/mL (≈ 506 µM)	2.6%	4.8%	–
CSCC[C@H](NC(=O)[C@H](CCC(=O)O)NC(=O)[C@H](CC(N)=O)NC(=O)[C@H](CCC(N)=O)NC(=O)[C@H](Cc1c[nH]c2ccccc12)NC(=O)[C@H](CCCNC(=N)N)NC(=O)[C@H](CC(C)C)NC(=O)[C@H](CSCNC(C)=O)NC(=O)[C@H](CCCCN)NC(=O)[C@@H](N)CCC(=O)O)C(=O)N[C@@H](CCCNC(=N)N)C(=O)N[C@@H](CCCCN)C(=O)N[C@H](C(=O)NCC(=O)NCC(=O)O)C(C)C [LFM, EKCLRWQNEMRKVGG] (H-EKC(Acm)LRWQNEMRKVGG-OH; N-terminus assumed)	>1000 µg/mL	>1000 µg/mL	2.3%	3.1%	–
CSCC[C@H](NC(=O)[C@H](CCCCN)NC(=O)[C@H](CCCCN)NC(=O)[C@H](CC(C)C)NC(=O)CNC(=O)[C@H](C)N)C(=O)N[C@@H](CCCNC(=N)N)C(=O)N[C@@H](Cc1c[nH]c2ccccc12)C(=O)N[C@@H](CCC(N)=O)C(=O)N[C@@H](Cc1c[nH]c2ccccc12)C(=O)N[C@@H](CCCNC(=N)N)C(=O)N[C@@H](CCCNC(=N)N)C(=O)N[C@@H](CSCNC(C)=O)C(=O)N[C@@H](CCCCN)C(=O)N[C@@H](Cc1ccccc1)C(=O)O [Retro LFB 17-31]	–	–	2.01%	–	MIC E. coli ([2]; Table 3): 80 µg/mL (≈ 38.7 µM); MIC S. aureus ([3]; Table 3, unit assumed): 200 µg/mL (≈ 96.8 µM)
CSCC[C@@H](NC(=O)[C@@H](CCCCN)NC(=O)[C@@H](CCCCN)NC(=O)[C@@H](CC(C)C)NC(=O)CNC(=O)[C@@H](C)N)C(=O)N[C@H](CCCNC(=N)N)C(=O)N[C@H](Cc1c[nH]c2ccccc12)C(=O)N[C@H](CCC(N)=O)C(=O)N[C@H](Cc1c[nH]c2ccccc12)C(=O)N[C@H](CCCNC(=N)N)C(=O)N[C@H](CCCNC(=N)N)C(=O)N[C@H](CSCNC(C)=O)C(=O)N[C@H](CCCCN)C(=O)N[C@H](Cc1ccccc1)C(=O)O [Retro-Enantio LFB 17-31]	–	–	3.31%	–	MIC E. coli ([2]; Table 3): 6.25 µg/mL (≈ 3.03 µM); MIC S. aureus ([3]; Table 3, unit assumed): 80 µg/mL (≈ 38.7 µM)
H-FKWRRWQWRMKKLWA-OH [LFB W3, 14, H2N-Phe-Lys-Trp-Arg-Arg-Trp-Gln-Trp-Arg-Met-Lys-Lys-Leu-Trp-Ala-COOH]	–	–	3.1%	5.1%	EC 50 (human red blood cells): >1000 µg/mL; EC50 (human red blood cells): > 453 µM; MIC E. coli ([2]; Table 6): 10 µg/mL; MIC E. coli ([2]; Table 12): 10 µg/mL; MIC S. aureus ([3]; Table 6, unit assumed): 10 µg/mL; MIC S. aureus ([3]; Table 12): 10 µg/mL
Linear LFB (17-41) modified with Pmc: linear LFB (17-41) modified with Pmc	–	–	–	–	cytotoxic effect on Meth A cells compared with another peptide [1]: slightly more effective than Pmc modified LFB 17-31
RRWQWRMKKLG-OH [LFB 20-30]	40 µg/mL	>100 µg/mL	2.16%	3.1%	–
YRAWRWAWRWR-NH2 [LFB 17-27 A3, 7 R2, 11 W4, 10 Y1 NH2, TYR-ARG-ALA-TRP-ARG-TRP-ALA-TRP-ARG-TRP-ARG-CONH2]	–	–	–	–	EC50 (human red blood cells): 400 ± 200 µM; EC 50 (human red blood cells; Table 13, toxicity (hemolysis)): 700 ± 300 µg/mL; MIC E. coli ([2]; Table 14, peptides with a proportion of D amino acids): 10 µg/mL; MIC S. aureus ([3]; Table 14): 2.5 µg/mL
